Experimental data taken from patent US5672715A, “Herbicidal substituted 3-aryl-pyrazoles” (Monsanto Company, priority 1995, dated 1997).

What was measured:
Format in all cases: in vivo
[1] = system: Cocklebur; experiment: pre-emergence herbicide test; conditions: Xanthium strumarium, pre-emergence, 0.25 lb/A; read-out: % plant inhibition
Outline: (§1)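 Seeds were sown on compacted topsoil in pans and covered with a topsoil layer carrying a known amount of active ingredient in acetone or water, applied before or after covering. Pans were bottom-watered on a greenhouse bench, and % inhibition was scored about 14 days after seeding and treatment.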

[2] = system: Wild Oats; experiment: pre-emergence herbicide test; conditions: Avena fatua, pre-emergence, 0.25 lb/A; read-out: % plant inhibition
Outline: as §1

[3] = system: Common Chickweed; experiment: pre-emergence herbicide test; conditions: pre-emergence, 0.25 lb/A; read-out: % plant inhibition
Outline: as §1

[4] = system: Bedstraw Catchweed; experiment: pre-emergence herbicide test; conditions: Galium aparine, pre-emergence, 0.25 lb/A; read-out: % plant inhibition
Outline: as §1

[5] = system: Green Foxtail; experiment: pre-emergence herbicide test; conditions: Setaria viridis, pre-emergence; 0.25 lb/A; read-out: % plant inhibition
Outline: as §1

[6] = system: Soybean; experiment: pre-emergence herbicide test; conditions: Glycine max, pre-emergence, 0.25 lb/A; read-out: % plant inhibition
Outline: as §1

[7] = system: Morning Glory; experiment: pre-emergence herbicide test; conditions: Ipomoea, pre-emergence, 0.25 lb/A; read-out: % plant inhibition
Outline: as §1

[8] = system: Wheat; experiment: pre-emergence herbicide test; conditions: Triticum aestivum, pre-emergence, 0.25 lb/A; read-out: % plant inhibition
Outline: as §1

[9] = system: Rape; experiment: pre-emergence herbicide test; conditions: pre-emergence, 0.25 lb/A; read-out: % plant inhibition
Outline: as §1

[10] = system: Velvetleaf; experiment: pre-emergence herbicide test; conditions: Abutilon theophrasti, pre-emergence, 0.25 lb/A; read-out: % plant inhibition
Outline: as §1

[11] = system: Seedling Johnsongrass; experiment: pre-emergence herbicide test; conditions: Sorghum halepense, pre-emergence, 0.25 lb/A; read-out: % plant inhibition
Outline: as §1

[12] = system: Blackgrass; experiment: pre-emergence herbicide test; conditions: Alopecurus myosuroides, pre-emergence, 0.25 lb/A; read-out: % plant inhibition
Outline: as §1

[13] = system: Corn; experiment: pre-emergence herbicide test; conditions: Zea mays, pre-emergence, 0.25 lb/A; read-out: % plant inhibition
Outline: as §1

[14] = system: Giant Foxtail; experiment: pre-emergence herbicide test; conditions: Setaria faberi, pre-emergence, 0.25 lb/A; read-out: % plant inhibition
Outline: as §1

[15] = system: Downy Brome; experiment: pre-emergence herbicide test; conditions: Bromus tectorum, pre-emergence, 0.25 lb/A; read-out: % plant inhibition
Outline: as §1

[16] = system: Birdseye Speedwell; experiment: pre-emergence herbicide test; conditions: pre-emergence, 0.25 lb/A; read-out: % plant inhibition
Outline: as §1

[17] = system: Barnyardgrass; experiment: pre-emergence herbicide test; conditions: Echinochloa crus-galli, pre-emergence, 0.25 lb/A; read-out: % plant inhibition
Outline: as §1

[18] = system: Cocklebur; experiment: post-emergence herbicide test; conditions: Xanthium strumarium, post-emergence, 0.25 lb/A; read-out: % plant inhibition
Outline: (§2)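 Each pan is moved to a spraying chamber when plants are two to three weeks old and sprayed by atomizer at 10 psig, delivering 1870 L/Ha containing about 0.4% by volume emulsifier. Greenhouse-grown from seed; percent inhibition scored.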

[19] = system: Wild Oats; experiment: post-emergence herbicide test; conditions: Avena fatua, post-emergence, 0.25 lb/A; read-out: % plant inhibition
Outline: as §2

[20] = system: Common Chickweed; experiment: post-emergence herbicide test; conditions: post-emergence, 0.25 lb/A; read-out: % plant inhibition
Outline: as §2

[21] = system: Bedstraw Catchweed; experiment: post-emergence herbicide test; conditions: Galium aparine, post-emergence, 0.25 lb/A; read-out: % plant inhibition
Outline: as §2

[22] = system: Green Foxtail; experiment: post-emergence herbicide test; conditions: Setaria viridis, post-emergence, 0.25 lb/A; read-out: % plant inhibition
Outline: as §2

[23] = system: Soybean; experiment: post-emergence herbicide test; conditions: Glycine max, post-emergence, 0.25 lb/A; read-out: % plant inhibition
Outline: as §2

[24] = system: Morning Glory; experiment: post-emergence herbicide test; conditions: Ipomoea, post-emergence, 0.25 lb/A; read-out: % plant inhibition
Outline: as §2

[25] = system: Wheat; experiment: post-emergence herbicide test; conditions: Triticum aestivum, post-emergence, 0.25 lb/A; read-out: % plant inhibition
Outline: as §2

[26] = system: Rape; experiment: post-emergence herbicide test; conditions: post-emergence, 0.25 lb/A; read-out: % plant inhibition
Outline: as §2

[27] = system: Velvetleaf; experiment: post-emergence herbicide test; conditions: Abutilon theophrasti, post-emergence, 0.25 lb/A; read-out: % plant inhibition
Outline: as §2

[28] = system: Seedling Johnsongrass; experiment: post-emergence herbicide test; conditions: Sorghum halepense, post-emergence, 0.25 lb/A; read-out: % plant inhibition
Outline: as §2

[29] = system: Blackgrass; experiment: post-emergence herbicide test; conditions: Alopecurus myosuroides, post-emergence, 0.25 lb/A; read-out: % plant inhibition
Outline: as §2

[30] = system: Corn; experiment: post-emergence herbicide test; conditions: Zea mays, post-emergence, 0.25 lb/A; read-out: % plant inhibition
Outline: as §2

[31] = system: Giant Foxtail; experiment: post-emergence herbicide test; conditions: Setaria faberi, post-emergence, 0.25 lb/A; read-out: % plant inhibition
Outline: as §2

[32] = system: Downy Brome; experiment: post-emergence herbicide test; conditions: Bromus tectorum, post-emergence, 0.25 lb/A; read-out: % plant inhibition
Outline: as §2

[33] = system: Birdseye Speedwell; experiment: post-emergence herbicide test; conditions: post-emergence, 0.25 lb/A; read-out: % plant inhibition
Outline: as §2

[34] = system: Barnyardgrass; experiment: post-emergence herbicide test; conditions: Echinochloa crus-galli, post-emergence, 0.25 lb/A; read-out: % plant inhibition
Outline: as §2

Compound	inhibition at 280.212 g/ha [1] [%]	inhibition at 280.212 g/ha [2] [%]	inhibition at 280.212 g/ha [3] [%]	inhibition at 280.212 g/ha [4] [%]	inhibition at 280.212 g/ha [5] [%]	inhibition at 280.212 g/ha [6] [%]	inhibition at 280.212 g/ha [7] [%]	inhibition at 280.212 g/ha [8] [%]	inhibition at 280.212 g/ha [9] [%]	inhibition at 280.212 g/ha [10] [%]	inhibition at 280.212 g/ha [11] [%]	inhibition at 280.212 g/ha [12] [%]	inhibition at 280.212 g/ha [13] [%]	inhibition at 280.212 g/ha [14] [%]	inhibition at 280.212 g/ha [15] [%]	inhibition at 280.212 g/ha [16] [%]	inhibition at 280.212 g/ha [17] [%]	inhibition at 280.212 g/ha [18] [%]	inhibition at 280.212 g/ha [19] [%]	inhibition at 280.212 g/ha [20] [%]	also measured
Cc1c(-c2cc(C(N)=O)c(Cl)cc2F)nn(C)c1C(F)(F)F [Compound 21]	20	60	98	90	100	15	20	5	90	25	85	95	16	45	35	100	90	65	20	30	inhibition at 280.212 g/ha [21]: 65%; inhibition at 280.212 g/ha [22]: 25%; inhibition at 280.212 g/ha [23]: 35%; inhibition at 280.212 g/ha [24]: 90%; inhibition at 280.212 g/ha [25]: 5%; inhibition at 280.212 g/ha [26]: 20%; inhibition at 280.212 g/ha [27]: 90%; inhibition at 280.212 g/ha [28]: 35%; inhibition at 280.212 g/ha [29]: 10%; inhibition at 280.212 g/ha [30]: 10%; inhibition at 280.212 g/ha [31]: 35%; inhibition at 280.212 g/ha [32]: 25%; inhibition at 280.212 g/ha [33]: 50%; inhibition at 280.212 g/ha [34]: 25%
Cc1c(-c2cc(C(=O)OCC(C)C)c(Cl)cc2F)nn(C)c1C(F)(F)F [Compound 45]	50	50	80	98	100	0	30	0	5	98	98	100	0	100	98	100	75	100	80	100	inhibition at 280.212 g/ha [21]: 100%; inhibition at 280.212 g/ha [22]: 100%; inhibition at 280.212 g/ha [23]: 35%; inhibition at 280.212 g/ha [24]: 50%; inhibition at 280.212 g/ha [25]: 17%; inhibition at 280.212 g/ha [26]: 50%; inhibition at 280.212 g/ha [27]: 100%; inhibition at 280.212 g/ha [28]: 95%; inhibition at 280.212 g/ha [29]: 98%; inhibition at 280.212 g/ha [30]: 55%; inhibition at 280.212 g/ha [31]: 80%; inhibition at 280.212 g/ha [32]: 95%; inhibition at 280.212 g/ha [33]: 100%; inhibition at 280.212 g/ha [34]: 75%
